Assay results taken from paper PMC11784115, “Trypsin-instructed bioactive peptide nanodrugs with cascading transformations to improve chemotherapy against colon cancer” (Journal of Nanobiotechnology, 2025).
pIC50: −log10 of the molar value. Read-outs that look alike come from different tables or passages of the source. Where a SMILES comes first, the peptide text is derived from it. The star is where a group is joined. Acetyl(2-naphthyl) = O=C(Cc1ccc2ccccc2c1)*

Experiments:
[1] = tested on: HT29 cells; type: cell-based, human
Description: HT29 cells were incubated in a 96-well microplate and cultured with 1-Pept/Dox NFs for 48 h. The concentrations of Dox were between 12.5 and 0.391 µM, and 1-Pept were between 125 and 3.91 µM. Then, a fixed volume of 20 µL MTT (5 mg/mL) was added to the wells for co-incubation. After 4 h, the generated formazan could be found. After dissolving in DMSO, the absorbance values were recorded at 490 nm utilizing a microplate reader (Multiskan FC). By comparing the absorbance of the samples and the controls, the cell’s survival rates were calculated. The IC50 values were obtained by Origin 8.0 software. Simultaneously, the MTT assays for NCM460, SW620, SW480, and HCT-15 were performed using the aforementioned procedures.

[2] = In vitro release from 1-Pept/Dox NFs (HPLC), Ritger-Peppas fitting; type: physicochemical
Description: The in vitro drug release profile of 1-Pept/Dox NFs was conducted in a constant temperature vibrator (40 rpm, 37 °C). 1-Pept/Dox NFs (200 µL, 1.0 wt%/0.1 eq) were prepared and incubated with 200 µL PBS buffer (pH = 7.4, 6.5 and 5.5). At particular time points, 200 µL liquid supernatant was sucked out and further analyzed by HPLC. Simultaneously, 200 µL fresh PBS was added to maintain a fixed volume. Free Dox solutions were used as controls.

[3] = tested on: HT29-xenografted tumor; assay: In vivo antitumor efficacy, HT29 xenograft; parameters: species or system BALB/C nude mice; settings: for percentage of Ki67-positive signals in tumor tissues: tumor tissue, day 21
Description: HT29 tumor-bearing mice model was developed to study the antitumor effect in vivo of 1-Pept/Dox NFs. HT29 cell suspension (100 µL, 5.0 × 10^6 cells) was mixed with an equal volume of Matrigel. Then, the mixtures were subcutaneously injected into the right back of male BALB/C nude mice (6–8 weeks, Jinan Pengyue Experimental Animal Breeding Co., Itd, China). […] (1) PBS; (2) 1-Pept NFs; […] The dosage was fixed as 13 µmol/kg for Dox moiety and 130 µmol/kg for 1-Pept. The tumor size and body weight of the mice were determined every three days. The tumor size was obtained using the equation V = L×W^2/2, where L and W denote the length and width, respectively. At the end of the day 21st, the tumor tissues were collected for HE staining to observe morphological changes in tumor cells. The actin and tubulin staining of the cell sections was also conducted to study the cytoskeleton changes after drug treatment. The Ki-67 staining was conducted to observe the proliferative status of tumor cells. Meanwhile, the signals of TUNEL and expressions of activated caspase-3 were also measured by immunohistochemical staining.

[4] = tested on: rabbit red blood cells
Description: To begin with, the biocompatibility of 1-Pept/Dox NFs was explored from hematological compatibility and histocompatibility. The hemolysis ratio of 1-Pept/Dox NFs was evaluated based on rabbit red blood cells (RBCs). […] Then, the samples were first centrifuged to obtain the supernatant and measured the absorbance at 540 nm. Deionized water served as a positive group and 0.9% of the NaCl solution was utilized as a negative group. The hemolysis ratio of samples was obtained according to the hemolysis rate equation.

[5] = Minimum gelation concentration (MGC) by vial inversion; type: physicochemical; settings: PBS, neutral pH, Tps 5 U/mL or Dox 0.1 eq where present
Description: The enzyme-directed assembly behavior of 1-Pept was subsequently investigated. 1-Pept was dissolved in PBS solution, and the pH was adjusted to neutral condition. The formation of 1-Pept nanofibrillar hydrogels was monitored via a vial inversion method. 1-Pept/Tps NFs were obtained after mixing Tps (5 U/mL) with 1-Pept solution. The MGC of 1-Pept NFs and 1-Pept/Tps NFs could be determined when the samples could not flow.
1-Pept (1.0 wt%) was dissolved in PBS solution and mixed with 0.1 equivalents of Dox to obtain 1-Pept/Dox NFs (1.0 wt%/0.1 eq), and the solutions were kept at 25 °C to obtain 1-Pept/Dox NFs. The MGC, CAC, microscopic morphology, CD analysis, and viscoelasticity were tested according to the above procedures. The intermolecular force between 1-Pept and Dox was examined with fluorescent spectroscopy. Simply, Dox solution (20 µg/mL) was incubated with different concentrations (125, 62.5, 31.3, 15.6, 7.81, and 3.90 µg/mL) of 1-Pept solutions, and the fluorescent spectrum of the sample was recorded at a fixed excitation wavelength of […]. Ulteriorly, the electrostatic interactions between 1-Pept and Dox were explored by adding sodium chloride solution (2 M).

[6] = tested on: trypsin (Tps); assay: in vitro; settings: isolated enzyme
Description: 1-Pept (1 mg/mL) was dissolved in PBS solution, and the pH was modulated to a neutral condition. After that, Tps (1 U/mL) was added to the solution to trigger the conversion of 1-Pept (NapFFGYKCD) into Pept (NapFFGYK). At fixed time points, 50 µL 1-Pept solution was taken out and mixed with 150 µL methanol to obtain the mixed solution. Finally, the mixed solution was analyzed with HPLC-MS to investigate the conversion rate.

[7] = free Dox solution, 12-h release

minimum gelation concentration (MGC) [5] [wt%]	pIC50 ([1]; 48 h)	metabolised at 72 h, 1 mg/mL [6] [%]	Structure (SMILES)	pIC50 ([1]; HT29, 48 h, MTT, read-out: IC50 value of Dox)	cumulative release of Dox at 12 h ([2]; free Dox solution control, PBS, 37 °C, 40 rpm, HPLC) [%]	Ritger-Peppas exponential factor n, Dox release [2, 7]	Ritger-Peppas k, Dox release [2, 7]	tumor volume growth rate on the 21st day ([3]; peritumoral s.c. injection days 1, 4, 7, 10, 13 µmol/kg Dox, 130 µmol/kg 1-Pept)	percentage of Ki67-positive signals in tumor tissues [3] [%]	hemolysis rate [4] [%]	hemolysis rate ([4]; red cells of rabbit, 1 h, 1.0 wt%) [%]
–	–	–	COc1cccc2c1C(=O)c1c(O)c3c(c(O)c1C2=O)C[C@@](O)(C(=O)CO)C[C@@H]3O[C@H]1C[C@H](N)[C@H](O)[C@H](C)O1 [Dox, Doxorubicin]	5.55	51	0.35	0.21	3.3	45	2.8	–
0.8	3.87	> 90	NCCCC[C@H](NC(=O)[C@H](Cc1ccc(O)cc1)NC(=O)CNC(=O)[C@H](Cc1ccccc1)NC(=O)[C@H](Cc1ccccc1)NC(=O)Cc1ccc2ccccc2c1)C(=O)N[C@@H](CS)C(=O)N[C@@H](CC(=O)O)C(=O)O [1-Pept, 2-Naphthylacetic acid-Phe-Phe-Gly-Tyr-Lys-Cys-Asp] ({Acetyl(2-naphthyl)}-FFGYKCD-OH)	–	–	–	–	–	60	–	1.1
